In patent publication US6589984B1, “Benzofurylpyrone derivatives” (Teijin Limited, priority 1998, dated 2003):

tested on: Human hepatic cancer cells HepG2; assay: TG production inhibiting activity (14C-acetic acid incorporation into TG) in HepG2 cells; type: cell-based; details: Homo sapiens, HepG2; group criterion, alternatives: IC50 at least 10 μM and less than 100 μM, or at least 5% and less than 30% inhibition at 1 μM, or at least 30% and less than 50% inhibition at 10 μM
In short: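 HepG2 cells cultured 6 days in eRDF with 10% bovine serum, then in serum-free eRDF given compound (diluted from 20 mM DMSO stock) plus 14C-acetic acid for one day at 37 °C, 5% CO2. Lipids extracted with hexane/isopropanol 2:1 and separated by TLC; the TG spot was cut out and counted by liquid scintillation.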

Row | Compound | IC50 [µM]
1 | Cc1c(-c2cc3cc(N(C)C(=O)c4cccnc4)ccc3o2)oc(=O)c(C)c1O [Example 253, 3,5-dimethyl-4-hydroxy-6-(5-(N-methyl-N-(3-pyridylcarbonyl)amino)benzofuran-2-yl)-2H-pyran-2-one] | 10 to 100
2 | Cc1c(-c2cc3cc(N(C)C(=O)C(C)C)ccc3o2)oc(=O)c(C)c1O [Example 254, 3,5-dimethyl-4-hydroxy-6-(5-(N-isobutyryl-N-methylamino)benzofuran-2-yl)-2H-pyran-2-one] | 10 to 100
3 | Cc1c(-c2cc3c(OCc4ccccc4)cccc3o2)oc(=O)c(C)c1O [Example 258, 6-(4-benzyloxybenzofuran-2-yl)-3,5-dimethyl-4-hydroxy-2H-pyran-2-one] | 10 to 100
4 | CC(=O)Oc1c(C)c(-c2cc3cc(O)ccc3o2)oc(=O)c1C [Example 261, 4-acetyloxy-3,5-dimethyl-6-(5-hydroxybenzofuran-2-yl)-2H-pyran-2-one] | 10 to 100
5 | Cc1c(-c2cc3cc(O)ccc3o2)oc(=O)c(C)c1O [Example 262, 3,5-dimethyl-4-hydroxy-6-(5-hydroxybenzofuran-2-yl)-2H-pyran-2-one] | 10 to 100
6 | COc1ccc(C(=O)Oc2ccc3oc(-c4oc(=O)c(C)c(OC(C)=O)c4C)cc3c2)cc1 [Example 263, 4-acetyloxy-3,5-dimethyl-6-(5-(4-methoxybenzoyloxy)benzofuran-2-yl)-2H-pyran-2-one] | 10 to 100
7 | CC(=O)Oc1c(C)c(-c2cc3cc(C(=O)O)ccc3o2)oc(=O)c1C [Example 264, 4-acetyloxy-6-(5-carboxybenzofuran-2-yl)-3,5-dimethyl-2H-pyran-2-one] | 10 to 100
8 | COc1cccc2oc(-c3oc(=O)c(C)c(OC(C)=O)c3C)cc12 [Example 266, 4-acetyloxy-3,5-dimethyl-6-(4-methoxybenzofuran-2-yl)-2H-pyran-2-one] | 10 to 100
9 | COc1cccc2oc(-c3oc(=O)c(C)c(O)c3C)cc12 [Example 267, 3,5-dimethyl-4-hydroxy-6-(4-methoxybenzofuran-2-yl)-2H-pyran-2-one] | 10 to 100
10 | CC(=O)Oc1ccc2oc(-c3oc(=O)c(C)c(OC(C)=O)c3C)cc2c1 [Example 269, 4-acetyloxy-6-(5-acetyloxybenzofuran-2-yl)-3,5-dimethyl-2H-pyran-2-one] | 10 to 100
11 | Cc1c(-c2cc3ccc(O)cc3o2)oc(=O)c(C)c1O [Example 272, 3,5-dimethyl-4-hydroxy-6-(6-hydroxybenzofuran-2-yl)-2H-pyran-2-one] | 10 to 100
12 | COc1ccc2cc(-c3oc(=O)c(C)c(OC(C)=O)c3C)oc2c1 [Example 273, 4-acetyloxy-3,5-dimethyl-6-(6-methoxybenzofuran-2-yl)-2H-pyran-2-one] | 10 to 100
13 | CC(=O)Oc1ccc2cc(-c3oc(=O)c(C)c(OC(C)=O)c3C)oc2c1 [Example 275, 4-acetyloxy-6-(6-acetyloxybenzofuran-2-yl)-3,5-dimethyl-2H-pyran-2-one] | 10 to 100
14 | COC(=O)CCOc1ccc2cc(-c3oc(=O)c(C)c(OC(C)=O)c3C)oc2c1 [Example 278, 4-acetyloxy-3,5-dimethyl-6-(6-(2-(methoxycarbonyl)ethoxy)benzofuran-2-yl)-2H-pyran-2-one] | 10 to 100
15 | CC(=O)OCCOc1ccc2cc(-c3oc(=O)c(C)c(OC(C)=O)c3C)oc2c1 [Example 280, 4-acetyloxy-6-(6-(2-(acetyloxy)ethoxy)benzofuran-2-yl)-3,5-dimethyl-2H-pyran-2-one] | 10 to 100
16 | Cc1c(-c2cc3cccc(O)c3o2)oc(=O)c(C)c1O [Example 281, 3,5-dimethyl-4-hydroxy-6-(7-hydroxybenzofuran-2-yl)-2H-pyran-2-one] | 10 to 100
17 | CC(=O)Oc1c(C)c(-c2cc3cccc(OC(C)=O)c3o2)oc(=O)c1C [Example 284, 4-acetyloxy-6-(7-acetyloxybenzofuran-2-yl)-3,5-dimethyl-2H-pyran-2-one] | 10 to 100

same assay, conditions: Homo sapiens, HepG2; group criterion, alternatives: IC50 less than 10 μM, or at least 30% inhibition at 1 μM, or at least 50% inhibition at 10 μM

Row | Compound | IC50 [µM]
18 | Cc1c(-c2cc3cc(OCc4cocn4)ccc3o2)oc(=O)c(C)c1O [Example 249, 3,5-dimethyl-4-hydroxy-6-(5-(4-oxazolylmethoxy)benzofuran-2-yl)-2H-pyran-2-one] | < 10
19 | Cc1c(-c2cc3cc(N(C)C(=O)c4ccccc4)ccc3o2)oc(=O)c(C)c1O [Example 250, 6-(5-(N-benzoyl-N-methylamino)benzofuran-2-yl)-3,5-dimethyl-4-hydroxy-2H-pyran-2-one] | < 10
20 | Cc1c(-c2cc3cc(N(C)C(=O)Cc4ccccc4)ccc3o2)oc(=O)c(C)c1O [Example 251, 3,5-dimethyl-4-hydroxy-6-(5-(N-methyl-N-(phenylacetyl)amino)benzofuran-2-yl)-2H-pyran-2-one] | < 10
21 | Cc1c(-c2cc3cc(N(C)C(=O)c4cccs4)ccc3o2)oc(=O)c(C)c1O [Example 252, 3,5-dimethyl-4-hydroxy-6-(5-(N-methyl-N-(2-thienylcarbonyl)amino)benzofuran-2-yl)-2H-pyran-2-one] | < 10
22 | Cc1c(-c2cc3cc(N(C)C(=O)OC(C)(C)C)ccc3o2)oc(=O)c(C)c1O [Example 255, 6-(5-(N-(t-butoxycarbonyl)-N-methylamino)benzofuran-2-yl)-3,5-dimethyl-4-hydroxy-2H-pyran-2-one] | < 10
23 | CC(=O)Oc1c(C)c(-c2cc3cc(OS(=O)(=O)C(F)(F)F)ccc3o2)oc(=O)c1C [Example 257, 4-acetyloxy-3,5-dimethyl-6-(5-trifluoromethanesulfonyloxybenzofuran-2-yl)-2H-pyran-2-one] | < 10
24 | COC(=O)c1ccc2oc(-c3oc(=O)c(C)c(OC(C)=O)c3C)cc2c1 [Example 259, 4-acetyloxy-3,5-dimethyl-6-(5-(methoxycarbonyl)benzofuran-2-yl)-2H-pyran-2-one] | < 10
25 | CC(=O)Oc1c(C)c(-c2cc3c(OCc4ccccc4)cccc3o2)oc(=O)c1C [Example 260, 4-acetyloxy-6-(4-benzyloxybenzofuran-2-yl)-3,5-dimethyl-2H-pyran-2-one] | < 10
26 | CC(=O)Oc1c(C)c(-c2cc3c(OC(C)=O)cccc3o2)oc(=O)c1C [Example 265, 4-acetyloxy-6-(4-acetyloxybenzofuran-2-yl)-3,5-dimethyl-2H-pyran-2-one] | < 10
27 | COc1ccc2oc(-c3oc(=O)c(C)c(OC(C)=O)c3C)cc2c1 [Example 268, 4-acetyloxy-3,5-dimethyl-6-(5-methoxybenzofuran-2-yl)-2H-pyran-2-one] | < 10
28 | CC(=O)Oc1c(C)c(-c2cc3cc(OCc4ccccc4)ccc3o2)oc(=O)c1C [Example 270, 4-acetyloxy-6-(5-benzyloxybenzofuran-2-yl)-3,5-dimethyl-2H-pyran-2-one] | < 10
29 | Cc1c(-c2cc3cc(OCc4ccccc4)ccc3o2)oc(=O)c(C)c1O [Example 271, 6-(5-benzyloxybenzofuran-2-yl)-3,5-dimethyl-4-hydroxy-2H-pyran-2-one] | < 10
30 | CC(=O)Oc1c(C)c(-c2cc3cc(OS(=O)(=O)c4ccc(C)cc4)ccc3o2)oc(=O)c1C [Example 274, 4-acetyloxy-3,5-dimethyl-6-(5-p-toluenesulfonyloxybenzofuran-2-yl)-2H-pyran-2-one] | < 10
31 | CC(=O)Oc1c(C)c(-c2cc3cccc(OCc4ccccc4)c3o2)oc(=O)c1C [Example 285, 4-acetyloxy-6-(7-benzyloxybenzofuran-2-yl)-3,5-dimethyl-2H-pyran-2-one] | < 10
